Experimental data as given in US4035394A, “5-Phenyl-2-furanyl-oxo or-hydroxy alkanoic acids and ethyl esters as gastric acid antisecretory agents” (Morton-Norwich Products, Inc., priority 1976, dated 1977).

System: gastric acid secretion
Test: modified standard pylorus-ligated secretory testing procedure in the rat
Type: in vivo, Sprague-Dawley rat
Conditions: 300 mg/kg p.o. suspension in 0.5% Methocel 1 hour prior to pylorus ligation, 4 hours after ligation; for % Inhibition Gastric Acid Output: titration to pH7, vs control; for % Inhibition Vol. of Gastric Secretion: vs control
Experimental: Such effect is evidenced using a modified standard pylorus-ligated secretory testing procedure in the rat. Sprague-Dawley rats, weighing 180-210 g and previously fasted for 24 hours, were used. All compounds were given perorally as suspensions in 0.5% Methocel 1 hour prior to pylorus ligation. Under light ether anesthesia, the rat stomach was ligated at the pylorus region. Four hours after ligation the conscious rat was sacrificed by a chloroform overdose. The stomach was carefully excised and its content drained into a centrifuge tube. Samples were centrifuged to separate secretions from debris. Gastric fluid volume reading and determination of sample contamination, based on debris and sample color, was made. Titration was performed on a sample aliquot of 1 ml diluted to a volume of 5 ml using distilled water. The titrant used was 0.1N NaOH. Total gastric acid output in the stomach was determined by titration to pH7. A dose of 300 mg/kg p.o. of a compound was administered to a group of rats and its effect on the volume of gastric secretion and acid output compared to a control group receiving 0.5% Methocel p.o. The activity of each compound based on the degree of inhibition of gastric acid output is set forth in Table I.

O=C(O)CC(O)c1ccc(-c2ccccc2Cl)o1 (stereo not drawn) [III, 3-[5-(2-Chlorophenyl)-2-furanyl]-3-hydroxypropanoic Acid]
% Inhibition Gastric Acid Output: 95.0%
% Inhibition Vol. of Gastric Secretion: 33.5%

CCOC(=O)CC(O)c1ccc(-c2ccc([N+](=O)[O-])cc2)o1 (stereo not drawn) [Example I, Ethyl 3-[5-(4-Nitrophenyl)-2-furanyl]-3-hydroxypropanoate]
% Inhibition Gastric Acid Output: 43.1%
% Inhibition Vol. of Gastric Secretion: 33.17%

O=C(O)CCC(O)c1ccc(-c2ccc(Cl)cc2)o1 (stereo not drawn) [II, 4-[5-(4-Chlorophenyl)-2-furanyl]-4-hydroxybutanoic Acid]
% Inhibition Gastric Acid Output: 72.3%
% Inhibition Vol. of Gastric Secretion: 47.3%

O=C(O)CCC(=O)c1ccc(-c2ccc(Cl)cc2)o1 [IV, B]
% Inhibition Gastric Acid Output: 57.1%
% Inhibition Vol. of Gastric Secretion: 40.7%

CCOC(=O)CC(=O)c1ccc(-c2ccc(Cl)cc2)o1 [VI, B]
% Inhibition Gastric Acid Output: 50.0%
% Inhibition Vol. of Gastric Secretion: 19.8%

O=C(O)CC(O)c1ccc(-c2ccc(Cl)cc2Cl)o1 (stereo not drawn) [V, 3-[5-(2,4-Dichlorophenyl)-2-furanyl]-3-hydroxypropanoic Acid]
% Inhibition Gastric Acid Output: 45.4%
% Inhibition Vol. of Gastric Secretion: 3.4%
